Measured values reported in patent publication US12415830B2, “Steroid compound, and use thereof and preparation method therefor” (Chengdu Kanghong Pharmaceutical Co Ltd, priority 2019, dated 2025).

Legend:
mice [1] = test: Light-dark shuttle box anti-anxiety test; type: in vivo; conditions: 5 consecutive days, 30 min after last administration, male mice
Description: 57.3.1 light-dark shuttle box: The light-dark shuttle box is a standard and well characterized assay for anxiolytic effects of the exemplary compounds. Mice naturally avoid the light of the box because light makes mice evasive and stressful, but the exploration habit of mice also prompts mice to try to explore a bright box. Increased time on the light of the box by the exemplary compounds reflects an anxiolytic effect on mice. The experimental mice were randomly divided into 5 groups based on weight, including a negative control group, two different dosage groups (1 mg/kg and 3 mg/kg) of the tested compounds (KH004 or KH022), and every group had 10 male mice. Mice were administered with corresponding dosage for tested intervention for 5 consecutive days in advance, and conducting anxiolytic experiments after 30 min of the last administration. The retention time in the light box was selected as the main index for evaluating the anti-anxiety effect of KH004 and KH022.

mice [2] = test: Elevated Plus Maze (EPM) testing; type: in vivo; conditions: 5 consecutive days, 30 min after last administration, male mice
Description: 57.3.2 Elevated Plus Maze (EPM) testing: EPM for exploratory behavior was used to assess general motor and anxiety-like behavior that was consisting of two open arms and two closed arms extending from a common central platform, thus forming anxiety-like symptoms. The anxiolytic compound would relieve the anxiety conflict status of animals in the test system. The experimental mice were randomly divided into 4 groups based on weight, including a negative control group, two different dosage groups (1 mg/kg and 3 mg/kg) of test compounds (KH004 or KH022), and every group had 10 male mice. Mice were administered with corresponding dosage for test intervention for 5 consecutive days in advance, and conducting anxiolytic experiments after 30 min of the last administration. The percentage of the retention time (latency) of mice open arms were used as the main index to evaluate the anxiolytic effect of KH004 and KH022, the results are shown in Table 5.

mice [3] = test: Observation of side effects (gait, mobility, prone behavior) during administration in the elevated plus maze experiment; type: in vivo; parameters: key to Gait, Level / mobility, Level / prone behavior, Level: “+” indicates severity; ++: “+” indicates severity; +++: three “+” are the most severe, with time to resume normal action >60 minutes; conditions: for side effects compared to the positive drug: 3 mg/kg, mice; for Gait, Number / mobility, Number / prone behavior, Number: 10 mice per group
Description: Since the drugs which are acting on GABA (A) receptor can produce behavioral anesthesia (side effects), side effects of mice during administration were observed during the course of the elevated plus maze experiment. […] “+” indicates severity, three “+” are the most severe, with time to resume normal action >60 minutes.

[4] = Pharmacokinetics in brain and plasma after dosing; type: in vivo, CD-1 mice
Description: KH022 in the present invention and the control described in example 56
The experimental animals are CD-1 mice.
Preparation of test compounds with 30% SBECD in water for intragastric administration. On the first day of the experiment, the animals in the first group are […] with the solution of KH022 or the control with the dosage of 5 mL/kg; before the administration, the animals were weighed, and the administration volume was calculated according to the body weight. Whole blood samples (about 0.03 ml per group) were collected at a specified time by saphenous vein puncture (or other suitable collection locations). Blood samples were immediately processed for plasma by centrifugation at approximately 4° C., 3,200 g for 10 min, quickly placed in dry ice, and kept below −20° C. until LC/MS/MS analysis. At each time point, animals were euthanized using CO2 and then brain tissue was collected, rinsed and dried with physiological saline, and homogenized with 4 times the brain weight (g) volume of 15 mM PBS (pH7.4):MeOH=2:1. After homogenization, samples were transferred to labeled centrifuge tubes and quickly placed in dry ice, stored at or below −20° C. for LC-MS/MS analysis.
The concentrations of the test compound in dose formulation samples was determined by the LC/UV, and the calibration curve contains at least 6 calibration standards, R^2≥0.999. The concentrations of the test compound in biological matrix was determined by the LC/MS/MS method. The retention time of test compounds or internal standards, chromatogram acquisition and chromatogram integration were processed by software Analyst (Applied Biosystems), and data statistics were processed by software Watson LIMS (Thermo Fisher Scientific) or Analyst (Applied Biosystems). The unit of the analyte concentration in the sample is ng/ml, with 3 significant digits reserved, and all values expressed in percentages (such as % deviation and % coefficient of variation, etc.) were kept to one decimal place. […]

Row | SMILES | The retention time in the light box (mice [1]; 1.0 mg/kg) [%] | The retention time in the light box (mice [1]; 3.0 mg/kg) [%] | The retention time of mice open arms (mice [2]; 1 mg/kg) [%] | The retention time of mice open arms (mice [2]; 3 mg/kg) [%] | side effects compared to the positive drug (mice [3]) | Gait, Number (mice [3]; 3mg/kg, the first day) | mobility, Number (mice [3]; 3mg/kg, the first day) | prone behavior, Number (mice [3]; 3mg/kg, the first day) | Gait, Number (mice [3]; 3mg/kg, the forth day) | mobility, Number (mice [3]; 3mg/kg, the forth day) | prone behavior, Number (mice [3]; 3mg/kg, the forth day) | Gait, Number (mice [3]; 3mg/kg, the second day) | mobility, Number (mice [3]; 3mg/kg, the second day) | prone behavior, Number (mice [3]; 3mg/kg, the second day) | Gait, Level (mice [3]; 3mg/kg, the third day) | Gait, Number (mice [3]; 3mg/kg, the third day) | mobility, Number (mice [3]; 3mg/kg, the third day) | prone behavior, Number (mice [3]; 3mg/kg, the third day) | Gait, Level (mice [3]; 3mg/kg, the first day) | mobility, Level (mice [3]; 3mg/kg, the first day) | other results
1 | C[C@]12CC[C@@H](O)C[C@@H]1CC[C@@H]1[C@@H]2CC[C@]2(C)[C@@H](C(=O)Cn3ncnn3)CCC[C@@H]12 [KH004] | 50.30 ± 6.89 | 53.91 ± 9.37 | 27.21 ± 11.15 | 36.44 ± 13.28 | less side effects | 0 | 0 | 0 | 0 | 0 | 0 | 0 | 0 | 0 | + | 1 | 0 | 0 |  |  | 
2 | C[C@@]1(O)CC[C@@]2(C)[C@@H](CC[C@@H]3[C@@H]2CC[C@]2(C)[C@@H](C(=O)Cn4ncnn4)CCC[C@@H]32)C1 [KH022] | 50.00 ± 4.59 | 56.66 ± 7.96 | 31.40 ± 16.41 | 39.46 ± 11.82 | less side effects | 3 | 1 | 0 | 3 | 1 | 0 | 2 | 0 | 0 | + | 1 | 0 | 0 | + | ++ | content in the mouse brain relative to the control ([4]; 2h, same dosage): 2.5 times; clearance in the mouse brain compared with the control ([4]; same dosage): cleared more slowly; Gait, Level (mice [3]; 3mg/kg, the forth day): +; mobility, Level (mice [3]; 3mg/kg, the forth day): +; Gait, Level (mice [3]; 3mg/kg, the second day): +
3 | C[C@@]1(O)CC[C@H]2[C@H](CC[C@@H]3[C@@H]2CC[C@]2(C)[C@@H](C(=O)Cn4cc(C#N)cn4)CC[C@@H]32)C1 [The control, reference compound] |  |  |  |  |  | 7 | 3 | 2 | 9 | 5 | 0 | 6 | 0 | 0 | + | 8 | 4 | 0 | ++ | +++ (three “+” are the most severe, with time to resume normal action >60 minutes) | detection in the brain ([4]; mouse brain, 8h): no detection; prone behavior, Level (mice [3]; 3mg/kg, the first day): +; Gait, Level (mice [3]; 3mg/kg, the forth day): +; mobility, Level (mice [3]; 3mg/kg, the forth day): +; Gait, Level (mice [3]; 3mg/kg, the second day): ++; mobility, Level (mice [3]; 3mg/kg, the third day): ++
